Experiments:
[1] = test system: HGC-27 human gastric carcinoma cell line; assay: cells; details: Homo sapiens, HGC-27, 72 h
[2] = test system: PANC-1 human pancreatic carcinoma cell line; assay: cells; details: Homo sapiens, PANC-1, 72 h
Outline: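 Cells seeded at 5,000/well, left 24 h drug-free, then exposed to test compounds for 72 h. Viability read by MTT reduction (MTT added for 8 h at 37° C, formazan dissolved in DMSO).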

[3] = test system: PC-3 human prostate cancer cell line; assay: cells; details: Homo sapiens, PC-3, 72 h
Outline: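 Cells seeded at 5,000/well, grown 24 h drug-free, then exposed to vehicle or test compounds for 72 h. Viability by MTT reduction (8 h, 37 °C), formazan dissolved in DMSO. Values given as percentage of control cell growth.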

[4] = test system: A549 human lung carcinoma cell line; assay: MTT cytotoxicity assay in A549 cells: IC50 of single agents and combinations with PM01183; assay type: cell-based; details: Homo sapiens, A549, 72 h
Outline: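 A549 cells seeded at 5,000 per well, grown 24 h drug-free, then exposed to vehicle or compounds for 72 h, either singly or combined with PM01183. Combination responses plotted against dose ratio relative to an additivity line.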

[5] = test system: MDA-MB-231 human breast adenocarcinoma cell line; assay: cells; details: Homo sapiens, MDA-MB-231, 72 h
[6] = test system: RXF-393 human kidney carcinoma cell line; assay: cells; details: Homo sapiens, RXF 393, 72 h
[7] = test system: A673 human rhabdomyosarcoma cell line; assay: cells; details: Homo sapiens, A673, 72 h
Outline: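 A673 cells seeded at 5,000 per well, grown 24 h drug-free, then exposed to compounds for 72 h. Viability by MTT reduction (8 h, 37 °C), formazan dissolved in DMSO. Results expressed as percentage of control cell growth.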

[8] = test system: RAMOS human lymphoma cell line; assay: cells; details: Homo sapiens, Ramos, 72 h
Procedure: (§1) Briefly, cells were seeded in 96 well microtiter plates at a density of 50000 cells per well in 150 μL of culture medium and incubated for 4-6 hours in drug-free medium before treatment with vehicle alone or test compounds for 72 hours.
(§2) After incubation, the cytotoxic effect was evaluated using a MTT reduction assay. 50 μL of MTT solution (1 mg/mL) were added to the wells and incubated for 15-17 hours at 37° C. until formazan crystals were formed. After gently removing the culture medium, DMSO was added to dissolve the insoluble purple formazan product into a colored solution. […] Results were expressed as percentage of control cell growth. The EC50 values (half-maximal effective concentration) used for the combination studies were calculated using Prism v5.02 software (GraphPad). EC50 was expressed as molar concentration and represented the mean of at least three independent assays.
(§3) Using these starting concentrations, constant serial dilutions were performed to generate the concentration-response curves for each set of drugs, alone and in combination.
(§4) Based on this equation, the term “combination index” (CI) is used as a quantitative measure of the degree of drug interactions. […] CI values were calculated by solving the equation for different values of fa (i.e., for different degrees of cell groth inhibition).
(§5) Data were analyzed using CalcuSyn software (Biosoft, Cambridge, UK). For statistical analysis and graphs Prism software (GraphPad, San Diego, USA) was used. All the results represent the mean of at least three independent experiments.
(§6) Additional serial dilutions were prepared in serum-free culture medium to achieve a final 4× concentration. Aliquots of 50 μL of each diluted compound were added per well.
(§7) In the second set of assays, concentration-response curves for the agents tested, both alone and in two-drug combination, were performed.

[9] = test system: U-937 human lymphoma cell line; assay: cells; details: Homo sapiens, U-937, 72 h
Procedure: as §1, §2, §3, §4, §5, §6, §7

[10] = test system: MOLT-4 human leukemia cell line; assay: cells; details: Homo sapiens, MOLT-4, 72 h
Procedure: as §6
(§8) JURKAT and MOLT-4 were the human leukemia cell lines selected for this assay, which were obtained from the American Type Culture Collection (ATCC).
as §1, §2
(§9) b. In a second set of experiments, concentration-response curves for the agents tested, both alone and in two-drug combination, were performed, using the same methodology described in the previous paragraph.
as §3, §4, §5

[11] = test system: JURKAT human leukemia cell line; assay: cells; details: Homo sapiens, Jurkat, 72 h
Procedure: as §6, §8, §1, §2, §9, §3, §4, §5

[12] = test system: HepG2 human hepatocellular liver carcinoma cell line; assay: MTT cytotoxicity assay in HepG2 cells: IC50 of single agents and combinations with PM01183; assay type: cell-based; details: Homo sapiens, HepG2, 72 h
[13] = test system: SK-MEL-2 human melanoma cell line; assay: cells; details: Homo sapiens, SK-MEL-2, 72 h
Outline: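 SK-MEL-2 melanoma cells (5,000/well) grown 24 h drug-free, then exposed 72 h to vehicle or test compounds. Viability by MTT reduction (8 h, 37 °C), formazan dissolved in DMSO; results expressed as percentage of control cell growth.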

[14] = test system: IGROV-1 human ovarian adenocarcinoma cell line; assay: cells; details: Homo sapiens, IGROV-1, 72 h
[15] = test system: U87-MG human glioblastoma cell line; assay: cells; details: Homo sapiens, U-87 MG, 72 h

`COc1cc2c(cc1O)CCN[C@]21CS[C@@H]2c3c(OC(C)=O)c(C)c4c(c3[C@H](COC1=O)N1[C@@H]2[C@H]2c3c(cc(C)c(OC)c3O)C[C@@H]([C@@H]1O)N2C)OCO4` [ET-743, trabectedin] was tested, and the IC50 [1] was 5.8 nM, the IC50 [2] was 21 nM and the IC50 [3] was 8 nM. For the same molecule, the IC50 [4] was 22.5 nM, the IC50 [5] was 2 nM and the IC50 [6] was 9.6 nM. It also gave an IC50 [7] of 1.9 nM, an EC50 [8] of 9.55 nM and an EC50 [9] of 8.62 nM. It also gave an EC50 [10] of 3.84 nM, an EC50 [11] of 6.96 nM and an IC50 [12] of 7.21 nM. The IC50 [13] was 2 nM, the IC50 [14] was 6.45 nM and the IC50 [15] was 5 nM.

— patent US11590129B2, “Combination therapy with an antitumor alkaloid” (PHARMA MAR, S.A., priority 2010, dated 2023)
